Laboratory results published in patent US6818203B2, “Use of perfluoroalkyl-containing metal complexes as contrast media in MR-imaging for visualization of plaque, tumors and necroses” (Schering Aktiengesellschaft, priority 2000, dated 2004).

How the values were obtained:
Format in all cases: in vivo
iliac lymph nodes = assay: lymph node visualization (MRT) after intravenous administration in VX2-tumor-bearing rabbits; settings: 200 μmol of Gd/kg i.v.
Description: The pictures of FIG. 6 show MR images of an iliac lymph node and of a primary tumor (VX2-tumor implanted i.m.) precontrast, 60 minutes and 20 hours after intravenous administration of 100 μmol of Gd/kg of body weight of metal complex I in rabbits. […] The enhancement in the healthy lymph node tissue was 382% at the time of 15 minutes p.i. and 419% at the time of 60 minutes p.i. […] The ratio of signal intensities of healthy lymph node tissue to metastasis was 3.0 at the time of 15 minutes p.i. and 3.4 at the time of 60 minutes p.i. […] The enhancement in the healthy lymph node tissue was 246% at the time of 15 minutes p.i. and 282% at the time of 60 minutes p.i. […] The ratio of signal intensities of healthy lymph node tissue to metastasis was 2.5 at the time of 15 minutes p.i. and 1.7 at the time of 60 minutes p.i. […] The enhancement in the healthy lymph node tissue was 297% at the time of 10 minutes p.i. and 269% at the time of 60 minutes p.i. […] The ratio of signal intensities of healthy lymph node tissue to metastasis was 5.1 at the time of 10 minutes p.i. and 1.9 at the time of 60 minutes p.i. […] The enhancement in the healthy lymph node tissue was 195% at the time of 15 minutes p.i. and 233% at the time of 60 minutes p.i. […] The ratio of signal intensities of healthy lymph node tissue to metastasis was 1.9 at the time of 15 minutes p.i. and 1.8 at the time of 60 minutes p.i.

[1] = system: iliac and inguinal lymph nodes; assay: lymph node visualization (MRT) after intravenous administration in guinea pigs with stimulated lymph nodes; settings: 200 μmol of Gd/kg i.v.
Description: By way of example, the pictures in FIG. 14 show MR images of iliac and inguinal lymph nodes precontrast and up to 24 hours after intravenous administration of 200 μmol of Gd/kg of body weight of metal complex XIV in guinea pigs with stimulated lymph nodes (Freund adjuvant). […] The enhancement was 127% at the time of 60 minutes p.i.

[2] = organ distribution (including tumor and lymph node concentration) after intravenous administration in prostate cancer-bearing rats; settings: 200 μmol Gd/kg i.v.
Description: After intravenous administration of 200 μmol of total gadolinium/kg of body weight of a polar Gd-chelate with perfluorinated side chains (metal complex XIV) in rats (Cop-inbreeding with Dunning R3327 MAT-Lu prostate cancer i.m.-implanted 12 days earlier), the metal content in various organs, in tumors, as well as in the lymph nodes (pooled as mesenteric and peripheral lymph nodes) was determined 10 minutes, 1 hour and 24 hours after administration (MW±SD, n=3).

CC(C(=O)NCC(=O)NCC(=O)N1CCN(C(=O)CNC(=O)CNC(=O)C(C)N2CCN(CC(=O)[O-])CCN(CC(=O)[O-])CCN(CC(=O)[O-])CC2)CCN(C(=O)COCCC(F)(F)C(F)(F)C(F)(F)C(F)(F)C(F)(F)C(F)(F)C(F)(F)C(F)(F)F)CCN(C(=O)CNC(=O)CNC(=O)C(C)N2CCN(CC(=O)[O-])CCN(CC(=O)[O-])CCN(CC(=O)[O-])CC2)CC1)N1CCN(CC(=O)[O-])CCN(CC(=O)[O-])CCN(CC(=O)[O-])CC1.[Gd+3].[Gd+3].[Gd+3] (centres unmarked) [metal complex XIV, 1,4,7-Tris{1,4,7-tris(N-(carboxylatomethyl)-10-[N-1-methyl-3,6-diaza-2,5,8-trioxooctane-1,8-diyl]-1,4,7,10-tetraazacyclododecane, Gdcomplex}-10-N-2H,2H,4H,4H,5H,5H-3-oxa-perfluoro-tridecanoyl]-1,4,7,10-tetraazacyclo-dodecane, Gd complex]
signal in healthy lymph node tissue (T1-weighted gradient-echo images) (iliac lymph nodes): strong signal rise
enhancement in the healthy lymph node tissue (iliac lymph nodes; 10 minutes p.i.): 297%
ratio of signal intensities of healthy lymph node tissue to metastasis (iliac lymph nodes; 10 minutes p.i.): 5.1
enhancement in the healthy lymph node tissue (iliac lymph nodes; 60 minutes p.i.): 269%
ratio of signal intensities of healthy lymph node tissue to metastasis (iliac lymph nodes; 60 minutes p.i.): 1.9
signal in zones within the lymph node diagnosed as metastases (confirmed histologically) (iliac lymph nodes; early images): without signal rise
enhancement in lymph node tissue ([1]; 60 minutes p.i.): 127%
signal in healthy lymph node tissue (T1-weighted gradient-echo images) ([1]; very shortly after injection): strong signal rise
% Dose ([2]; Balance (without blood values), 24 h p.i.): 95.07 ± 2.41 % Dose
% Dose ([2]; Blood (58 ml of blood/kg of body weight), 10 min p.i.): 26.73 ± 0.84 % Dose
% Dose ([2]; Blood (58 ml of blood/kg of body weight), 1 h p.i.): 16.13 ± 1.77 % Dose
% Dose ([2]; Blood (58 ml of blood/kg of body weight), 24 h p.i.): 0.61 ± 0.03 % Dose
Gd concentration ([2]; Blood, 10 min p.i.): 957 ± 38 µmol/L
Gd concentration ([2]; Blood, 1 h p.i.): 575 ± 56 µmol/L
Gd concentration ([2]; Blood, 24 h p.i.): 22 ± 1 µmol/L
% Dose ([2]; Brain, 10 min p.i.): 0.10 ± 0.03 % Dose
Gd concentration ([2]; Brain, 10 min p.i.): 38 ± 6 µmol/L
% Dose ([2]; Brain, 1 h p.i.): 0.06 ± 0.00 % Dose
Gd concentration ([2]; Brain, 1 h p.i.): 22 ± 2 µmol/L
% Dose ([2]; Brain, 24 h p.i.): 0.01 ± 0.01 % Dose
Gd concentration ([2]; Brain, 24 h p.i.): 4 ± 4 µmol/L
% Dose ([2]; Feces 0-24 h): 6.00 ± 4.91 % Dose
Gd concentration ([2]; Feces 0-24 h): 781 ± 611 µmol/L
% Dose ([2]; Femur, 10 min p.i.): 0.39 ± 0.02 % Dose
Gd concentration ([2]; Femur, 10 min p.i.): 115 ± 3 µmol/L
% Dose ([2]; Femur, 1 h p.i.): 0.28 ± 0.03 % Dose
Gd concentration ([2]; Femur, 1 h p.i.): 81 ± 10 µmol/L
% Dose ([2]; Femur, 24 h p.i.): 0.03 ± 0.00 % Dose
Gd concentration ([2]; Femur, 24 h p.i.): 9 ± 1 µmol/L
% Dose ([2]; Heart, 10 min p.i.): 0.32 ± 0.01 % Dose
Gd concentration ([2]; Heart, 10 min p.i.): 320 ± 8 µmol/L
% Dose ([2]; Heart, 1 h p.i.): 0.19 ± 0.01 % Dose
Gd concentration ([2]; Heart, 1 h p.i.): 190 ± 15 µmol/L
% Dose ([2]; Heart, 24 h p.i.): 0.02 ± 0.00 % Dose
Gd concentration ([2]; Heart, 24 h p.i.): 19 ± 0 µmol/L
% Dose ([2]; Intestine (empty), 10 min p.i.): 1.55 ± 0.09 % Dose
Gd concentration ([2]; Intestine (empty), 10 min p.i.): 242 ± 15 µmol/L
% Dose ([2]; Intestine (empty), 1 h p.i.): 1.16 ± 0.22 % Dose
Gd concentration ([2]; Intestine (empty), 1 h p.i.): 201 ± 32 µmol/L
% Dose ([2]; Intestine (empty), 24 h p.i.): 0.26 ± 0.04 % Dose
Gd concentration ([2]; Intestine (empty), 24 h p.i.): 36 ± 5 µmol/L
% Dose ([2]; Kidney, 10 min p.i.): 1.76 ± 0.14 % Dose
Gd concentration ([2]; Kidney, 10 min p.i.): 761 ± 60 µmol/L
% Dose ([2]; Kidney, 1 h p.i.): 2.84 ± 0.61 % Dose
Gd concentration ([2]; Kidney, 1 h p.i.): 1181 ± 232 µmol/L
% Dose ([2]; Kidney, 24 h p.i.): 0.81 ± 0.09 % Dose
Gd concentration ([2]; Kidney, 24 h p.i.): 338 ± 49 µmol/L
% Dose ([2]; Liver, 10 min p.i.): 2.62 ± 0.11 % Dose
Gd concentration ([2]; Liver, 10 min p.i.): 192 ± 12 µmol/L
% Dose ([2]; Liver, 1 h p.i.): 2.04 ± 0.15 % Dose
Gd concentration ([2]; Liver, 1 h p.i.): 147 ± 7 µmol/L
% Dose ([2]; Liver, 24 h p.i.): 0.96 ± 0.05 % Dose
Gd concentration ([2]; Liver, 24 h p.i.): 64 ± 4 µmol/L
% Dose ([2]; Lung, 10 min p.i.): 1.04 ± 0.02 % Dose
Gd concentration ([2]; Lung, 10 min p.i.): 603 ± 30 µmol/L
% Dose ([2]; Lung, 1 h p.i.): 0.80 ± 0.06 % Dose
